Reference: patent publication US20240173374A1, “LIPOSOMAL FORMULATIONS OF BORONIC ACID CONTAINING ACTIVE AGENTS” (Ohio State Innovation Foundation, priority 2021, published 2024)

Key:
[1] = BTZ / boronic acid drug loading into liposomes (UV absorption or HPLC); format: physicochemical; conditions: tiron-based liposomes, same drug loading protocol
Method: Remote loading of BTZ into liposomes encapsulating calcium ascorbate/calcium acetate. Lipids (DSPC/Chol/mPEG-DSPE 60:35:5 mole/mole) were dissolved in chloroform, dried into a thin film on a round-bottom flask and hydrated in 100 mM calcium ascorbate/50 mM calcium acetate (pH 8). The resulting liposomes were subjected to 5 cycles of freezing and thawing and extrusion through a 100-nm pore size polycarbonate membrane in a Lipex extruder at 65 degree. […] External buffer of the liposomes was exchanged to 130 mM NaCl/10 mM histidine (pH 6) by passing through a Sepharose CL-4B column. […] BTZ was dissolved in a small volume of DMSO and added to the liposomes and incubated under stirring at 20-60 degrees for 10-60 min (e.g., 30 min at 50 degree) to facilitate remote loading. BTZ diffuses into the liposomes and forms a complex with ascorbic acid (BTZ-ASC complex), which is negatively charged and partially precipitates intraliposome with calcium, resulting in stable encapsulation of the BTZ. Finally, unencapsulated BTZ was removed from the liposomes by passing through a Sepharose CL-4B column. BTZ concentration in the L-BTZ was determined by UV absorption or by HPLC. […]
Remote loading of BTZ into liposomes containing ascorbyl palmitate (ASC-C16) and encapsulating calcium acetate. […] BTZ concentration in the L-BTZ was determined by UV absorption or by HPLC. […]

[2] = Plasma pharmacokinetics of L-BTZ and Velcade in rats after single dose; format: in vivo; conditions: 0.6 mg/kg, 5 ul/g, plasma BTZ by LC-MS
Method: Plasma concentrations were determined by LC-MS. Compared to Velcade, the circulation time L-BTZ was much longer, which subsequently enhances the therapeutic effect and half-life time in vivo.

[3] = tested on: NCI-H929 multiple myeloma; experiment: Antitumor activity in NCI-H929 multiple myeloma subcutaneous murine xenograft model; format: in vivo, mice; conditions: FIG. 3B
Source text: (3A) anti-tumor effect, (3B) body weight loss, and (3C) survival curves result in vivo.

[4] = AML trial; cited from earlier work
[5] = clinical trial for SLE; cited from earlier work
AML murine model = conditions: cited from earlier work

Row | drug loading [1] | CLss_F ([2]; i.v.) | Vz_F ([2]; i.v.) | AUC(0-inf) ([2]; rat, iv) | AUC(0-t) ([2]; rat, iv) | Cmax ([2]; rat, iv) | Tmax ([2]; rat, iv) | half-life ([2]; rat, iv) | Compound | body weight loss during treatment [3] | drop out due to neurotoxicity [4] | dropped out due to side effects [5] | reaching effective dose (limited by toxicity) (AML murine model)
1 | High drug loading |  |  |  |  |  |  |  | CC(C)C[C@H](NC(=O)[C@@H](NC(=O)c1cccc(-c2ccccc2)n1)[C@@H](C)O)B(O)O [delanzomib] |  |  |  | 
2 |  | 18.9 mL/min/kg | 54.22 L/kg | 864 ng·h/mL | 322 ng·h/mL | 45.4 ng/mL | 0.25 h | 33.1 h | CC(C)C[C@H](NC(=O)[C@H](Cc1ccccc1)NC(=O)c1cnccn1)B(O)O [free BTZ, Bortezomib] | no significant body weight loss | 4/7 | 7/12 | cannot reach effective dose
3 | High drug loading |  |  |  |  |  |  |  | CC(C)C[C@H](NC(=O)CNC(=O)c1cc(Cl)ccc1Cl)B(O)O [ixazomib] |  |  |  | 
